pIC50: −log10 of the molar value.

For one assay, the target named is μ opioid receptor (Homo sapiens, UniProt P35372). Briefly: Opiate receptor binding (μ). The following applies: procedure of Wang et al. The source says:
Another assay useful in the present invention concerns determining the ability of a ligand to bind to a biological receptor utilizing a technique well known in the art referred to as a radioligand binding assay. This assay accurately determines the specific binding of a radioligand to a targeted receptor through the delineation of its total and nonspecific binding components. Total binding is defined as the amount of radioligand that remains following the rapid separation of the radioligand bound in a receptor preparation (cell homogenates or recombinate receptors) from that which is unbound. The nonspecific binding component is defined as the amount of radioligand that remains following separation of the reaction mixture consisting of receptor, radioligand and an excess of unlabeled ligand. Under this condition, the only radioligand that remains represents that which is bound to components other that receptor. The specific radioligand bound is determined by subtracting the nonspecific from total radioactivity bound. For a specific example of radioligand binding assay for μ-opioid receptor, see Wang, J. B. et al. FEBS Letters 1994, 338, 217.
(§1) The opioid (μ, κ, δ) receptor-binding capabilities of compounds described herein were determined according to the procedures outlined by Wang et al. (FEBS Letters 1994, 338, 217), Maguire et al. (Eur. J. Pharmacol. 1992, 213, 219), and Simonin et al. (Mol. Pharmacol. 1994, 46, 1015).

Another assay deals with κ opioid receptor (Cavia porcellus, UniProt P41144). Put plainly: Opiate receptor binding (κ). As to conditions: procedure of Maguire et al. On the procedure:
as §1

A further assay addresses δ opioid receptor (Homo sapiens, UniProt P41143). Briefly: Opiate receptor binding (δ). The following applies: procedure of Simonin et al. As for the experimental part:
as §1

Chain of δ opioid receptor (P41143 whole entry): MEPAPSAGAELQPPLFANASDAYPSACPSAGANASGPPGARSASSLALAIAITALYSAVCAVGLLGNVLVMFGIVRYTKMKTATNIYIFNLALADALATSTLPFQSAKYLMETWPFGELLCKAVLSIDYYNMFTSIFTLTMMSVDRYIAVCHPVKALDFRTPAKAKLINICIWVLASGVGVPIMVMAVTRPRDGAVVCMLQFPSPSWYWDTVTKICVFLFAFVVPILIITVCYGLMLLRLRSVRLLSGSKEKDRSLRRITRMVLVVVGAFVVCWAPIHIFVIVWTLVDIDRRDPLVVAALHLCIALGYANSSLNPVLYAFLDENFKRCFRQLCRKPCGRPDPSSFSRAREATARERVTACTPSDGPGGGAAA
Chain of μ opioid receptor (P35372 whole entry): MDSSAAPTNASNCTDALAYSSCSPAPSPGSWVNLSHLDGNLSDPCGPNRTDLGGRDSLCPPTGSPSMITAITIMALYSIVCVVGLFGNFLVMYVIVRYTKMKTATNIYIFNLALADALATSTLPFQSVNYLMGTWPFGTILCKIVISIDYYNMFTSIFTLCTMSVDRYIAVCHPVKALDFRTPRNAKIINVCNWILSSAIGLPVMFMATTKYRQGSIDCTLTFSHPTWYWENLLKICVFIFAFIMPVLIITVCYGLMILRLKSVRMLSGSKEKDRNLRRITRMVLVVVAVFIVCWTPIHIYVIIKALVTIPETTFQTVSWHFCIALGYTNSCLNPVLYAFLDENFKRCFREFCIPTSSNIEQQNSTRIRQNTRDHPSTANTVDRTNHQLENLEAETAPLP
Chain of κ opioid receptor (P41144 whole entry): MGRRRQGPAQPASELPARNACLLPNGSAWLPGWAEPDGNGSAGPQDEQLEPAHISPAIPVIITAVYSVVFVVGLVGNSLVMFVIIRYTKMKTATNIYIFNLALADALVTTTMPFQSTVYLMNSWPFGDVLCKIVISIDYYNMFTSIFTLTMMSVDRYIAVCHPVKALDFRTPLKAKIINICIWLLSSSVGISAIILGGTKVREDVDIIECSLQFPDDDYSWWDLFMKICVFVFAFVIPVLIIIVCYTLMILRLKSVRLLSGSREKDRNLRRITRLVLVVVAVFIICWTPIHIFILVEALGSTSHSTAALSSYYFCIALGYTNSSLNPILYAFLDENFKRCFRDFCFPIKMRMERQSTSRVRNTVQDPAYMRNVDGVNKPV

As a reminder, the pIC50 is the IC50 on a negative log10 scale, so that one unit is a factor of ten. Read a high pIC50 as a small IC50. Turning to `CCC(=O)N(CC1CCCN(CCc2ccccc2)C1)C(C)c1ccccc1` (single isomer, unassigned) [Compound 220, N-(1-Phenethyl-piperidin-3-ylmethyl)-N-(1-phenyl-ethyl)-propionamide], the pIC50 on μ opioid receptor is over 6.00; at κ opioid receptor, over 6.00; on δ opioid receptor, under 6.00.

In the case of `CCC(=O)N(CC1CCCN(CCc2ccccc2)C1)C(C)c1ccccc1` (single isomer, unassigned) [Compound 225, N-(1-Phenethyl-piperidin-3-ylmethyl)-N-(1-phenyl-ethyl)-propionamide], the pIC50 on μ opioid receptor is over 6.00; on κ opioid receptor, under 6.00; at δ opioid receptor, under 6.00.

As to `CCC(=O)N(CC1CCCN(CCc2ccccc2)C1)C(C)c1ccccc1` (single isomer, unassigned) [Compound 223, N-(1-Phenethyl-piperidin-3-ylmethyl)-N-(1-phenyl-ethyl)-propionamide], the figures for the negative-log IC50 (pIC50) at μ opioid receptor, at κ opioid receptor and at δ opioid receptor were over 7.00, under 6.00 and under 6.00, respectively.

Take `CCC(=O)N(CC1CCCN(CCc2ccccc2)C1)C(C)c1ccccc1` (single isomer, unassigned) [Compound 222, N-(1-Phenethyl-piperidin-3-ylmethyl)-N-(1-phenyl-ethyl)-propionamide]: the negative-log IC50 (pIC50) on μ opioid receptor, on κ opioid receptor and at δ opioid receptor was under 6.00 each time.

For `CCC(=O)N(CC1CCCN(CCc2ccccc2)C1)C(C)c1ccccc1` (single isomer, unassigned) [Compound 224, N-(1-Phenethyl-piperidin-3-ylmethyl)-N-(1-phenyl-ethyl)-propionamide], the pIC50 was over 6.00 at μ opioid receptor, under 6.00 at κ opioid receptor and under 6.00 on δ opioid receptor.

With `CCC(=O)N(CC1CCCN(CCc2ccccc2)C1)C(C)c1ccccc1` (single isomer, unassigned) [Compound 221, N-(1-Phenethyl-piperidin-3-ylmethyl)-N-(1-phenyl-ethyl)-propionamide], the results for the pIC50 on μ opioid receptor, on κ opioid receptor and on δ opioid receptor were over 6.00, over 6.00 and under 6.00, respectively.

The record behind these values is US7361666B2, “Heterocyclic analgesic compounds and methods of use thereof” (Sepracor, Inc., priority 1999, dated 2008).
